Data published in the NIST ThermoML archive (doi:10.1016/j.jct.2019.01.014).
“And” between values parts separate entries of the source, which are not always exact repeats. Equal values may be shown once. ± gives the expanded uncertainty stated by the source.

Columns and labels:
[1] = molar enthalpy of vaporization or sublimation; settings: Crystal, Static calorimetry
[2] = Crystal, Calculated from knudsen effusion weight loss

O=C1CCCCCN1 [1-aza-2-cycloheptanone]
Settings	molar enthalpy [kcal/mol]	vapor or sublimation pressure
[1], 350.03 K	20.9 ± 1.17	–
[2], 293.7 K	–	0.0001506 ± 6e-05 kPa and 0.0001518 ± 6e-05 kPa and 0.0001508 ± 6e-05 kPa
[2], 295.7 K	–	0.0001889 ± 6e-05 kPa and 0.000183 ± 6e-05 kPa and 0.000182 ± 6e-05 kPa
[2], 296.6 K	–	0.0002196 ± 6.1e-05 kPa and 0.0002191 ± 6.1e-05 kPa and 0.0002211 ± 6.1e-05 kPa
[2], 298.19 K	–	0.0002627 ± 6.1e-05 kPa and 0.0002587 ± 6.1e-05 kPa and 0.0002716 ± 6.1e-05 kPa
[2], 299.67 K	–	0.0003254 ± 6.1e-05 kPa and 0.0003117 ± 6.1e-05 kPa and 0.0003173 ± 6.1e-05 kPa
[2], 301.1 K	–	0.0003753 ± 6.2e-05 kPa and 0.0003757 ± 6.2e-05 kPa and 0.0003791 ± 6.2e-05 kPa
[2], 302.69 K	–	0.0004428 ± 6.2e-05 kPa and 0.0004363 ± 6.2e-05 kPa and 0.0004403 ± 6.2e-05 kPa
[2], 304.15 K	–	0.0005432 ± 6.3e-05 kPa and 0.0005228 ± 6.3e-05 kPa and 0.0005341 ± 6.3e-05 kPa
[2], 305.59 K	–	0.0006305 ± 6.4e-05 kPa and 0.0006272 ± 6.4e-05 kPa and 0.0006374 ± 6.4e-05 kPa
[2], 307.18 K	–	0.0007318 ± 6.5e-05 kPa and 0.0007265 ± 6.5e-05 kPa and 0.0007404 ± 6.6e-05 kPa
[2], 308.66 K	–	0.0008828 ± 6.8e-05 kPa and 0.0009064 ± 6.8e-05 kPa and 0.0008695 ± 6.8e-05 kPa
[2], 310.1 K	–	0.001048 ± 9.6e-05 kPa and 0.001045 ± 9.6e-05 kPa and 0.001038 ± 9.5e-05 kPa

S=C1CCCCCN1 [azepane-2-thione]
Settings	molar enthalpy [kcal/mol]	vapor or sublimation pressure
[1], 386.11 K	23.5 ± 1.29	–
[2], 318.18 K	–	9.46e-05 ± 6e-05 kPa and 9.18e-05 ± 6e-05 kPa and 9.11e-05 ± 6e-05 kPa
[2], 320.16 K	–	0.0001201 ± 6e-05 kPa and 0.0001211 ± 6e-05 kPa and 0.0001173 ± 6e-05 kPa
[2], 322.08 K	–	0.0001485 ± 6e-05 kPa and 0.0001484 ± 6e-05 kPa and 0.0001469 ± 6e-05 kPa
[2], 324.2 K	–	0.0001813 ± 6e-05 kPa and 0.0001821 ± 6e-05 kPa and 0.0001901 ± 6e-05 kPa
[2], 326.15 K	–	0.0002346 ± 6.1e-05 kPa and 0.0002296 ± 6.1e-05 kPa and 0.0002407 ± 6.1e-05 kPa
[2], 328.08 K	–	0.0002879 ± 6.1e-05 kPa and 0.0002891 ± 6.1e-05 kPa and 0.0002869 ± 6.1e-05 kPa
[2], 330.18 K	–	0.0003569 ± 6.1e-05 kPa and 0.0003533 ± 6.1e-05 kPa and 0.0003704 ± 6.1e-05 kPa
[2], 332.12 K	–	0.0004537 ± 6.2e-05 kPa and 0.0004424 ± 6.2e-05 kPa and 0.0004677 ± 6.2e-05 kPa
[2], 334.07 K	–	0.0005566 ± 6.3e-05 kPa and 0.0005557 ± 6.3e-05 kPa and 0.0005502 ± 6.3e-05 kPa
[2], 336.18 K	–	0.0006862 ± 6.5e-05 kPa and 0.0006759 ± 6.5e-05 kPa and 0.0007079 ± 6.5e-05 kPa
[2], 338.15 K	–	0.000897 ± 6.8e-05 kPa and 0.0008658 ± 6.7e-05 kPa and 0.0008434 ± 6.7e-05 kPa
[2], 340.08 K	–	0.001048 ± 9.6e-05 kPa and 0.001057 ± 9.7e-05 kPa and 0.001058 ± 9.7e-05 kPa
